Reference: patent US9493466B2, “Treatment of cancer with TOR kinase inhibitors” (Signal Pharmaceuticals, LLC, priority 2011, dated 2016)

Experiments:
BT-20 = assay: Growth inhibition assay for breast cancer; assay type: cell-based; conditions: BT-20 (Basal, TN), 96 hours
Text: (§1) Growth Inhibition Assay for Breast Cancer (BC) (Compound 1). All breast cancer cell lines were maintained and tested in appropriate culture media. The seeding density for each cell line was optimized to ensure assay linearity in 384-well plates.
(§2) Increasing concentrations of Compound 1 were spotted via an acoustic dispenser (EDC ATS-100) into an empty 384-well plate. Compound 1 was spotted in a 10-point serial dilution fashion (3-fold dilution) in duplicate within the plate. The dimethyl sulfoxide (DMSO) concentration was kept constant for a final assay concentration of 0.1% DMSO. Plates were replicated for use against different cell lines and testing periods. After compound plate replication, all plates were sealed (Agilent ThermoLoc) and stored at −20° C. for up to 1 month. When ready for testing, plates were removed from the freezer, thawed, and unsealed just prior to the addition of the test cell.
(§3) Prior to testing, cells were grown and expanded in culture flasks to provide sufficient amounts of starting material. Cells were then diluted to their desired densities and added directly to the Compound 1-spotted 384-well plates. Cells were allowed to grow for 96 hours at 37° C./5% CO2. At the time of setup (t0), initial cell number was assessed via a viability assay (Cell Titer-Glo) and read for luminescence. After 96 hours, cell viability of Compound 1-treated cells was assessed via Cell Titer-Glo and read for luminescence.
(§4) Cell lines were assayed for growth inhibition by Compound 1 for at least two independent tests. All data was normalized and represented as a percentage of the DMSO-treated control cells. […] The potency of Compound 1 in different subtypes of breast cancer cell lines is shown in FIG. 7A, while the correlation of Compound 1 sensitivity to ER, HER, PIK3CA, and TP53 status is shown in FIG. 7B.

AU565 = assay: Growth inhibition assay for breast cancer; assay type: cell-based; conditions: AU565 (Luminal, Her2+), 96 hours
Text: as §1, §2, §3, §4

MDA-MB-361 = assay: Growth inhibition assay for breast cancer; assay type: cell-based; conditions: MDA-MB-361 (Luminal, Her2+), 96 hours
Text: as §1, §2, §3, §4

MDA-MB-415 = assay: Growth inhibition assay for breast cancer; assay type: cell-based; conditions: MDA-MB-415 (Luminal, ER+), 96 hours
Text: as §1, §2, §3, §4

EFM-19 = assay: Growth inhibition assay for breast cancer; assay type: cell-based; conditions: EFM-19 (Luminal, ER+), 96 hours
Text: as §1, §2, §3, §4

CAL-85-1 = assay: Growth inhibition assay for breast cancer; assay type: cell-based; conditions: CAL-85-1 (Basal, TN), 96 hours
Text: as §1, §2, §3, §4

MDA-MB-231 = assay: Growth inhibition assay for breast cancer; assay type: cell-based; conditions: MDA-MB-231 (Basal, TN), 96 hours
Text: as §1, §2, §3, §4

U87MG tumors [1] = assay: Apoptosis TUNEL assay in U87MG tumors; assay type: in vivo, mice; conditions: 5 mg/kg BID oral for 4 days
Experimental: (§5) Mechanism of action studies. To determine the mechanism of action of Compound 1, mice bearing U87MG tumors of approximately 500 mm^3 were dosed orally with vehicle or Compound 1 at 5 mg/kg BID for 4 days. The positive control, rapamycin, was dosed at 4 mg/kg Q3D for 4 days. Two hours after the 7th dose of Compound 1 on day 4, animals were euthanized and tumors were dissected out and snap frozen in liquid nitrogen. In the rapamycin-treated group tumors were collected at 2 hour after the 2nd dose on day 4. The tumors were processed for immunohistochemistry (IHC) or TUNEL.
Apoptosis TUNEL Assay. To detect apoptotic cells, fluorescence in situ cell death detection kit (Roche Biosciences) was used. […]
(§6) Quantitation of Immunohistochemistry. The tissues sections processed for apoptosis or immunostained for proliferating cells (Ki67) or blood vessels were quantitated using Metamorph software. Using 20× objective, 5 different fields from each section, 2-4 sections from each tumor, and 3-4 tumors from each treatment group or control were used for quantitation. The area of interest was expressed as the percent threshold area of the total area.
Apoptotic Activity of Compound 1. […] FITC-labeled nucleotides (representing the cells with DNA strand breaks, a hallmark of apoptosis) can be detected using a microscope equipped with a fluorescence attachment.

U87MG tumors [2] = assay: Ki67 immunohistochemistry in U87MG tumors; assay type: in vivo, mice; conditions: 5 mg/kg BID oral for 4 days; p<0.001
Experimental: as §5
Immunohistochemistry. Five to ten micron (5-10 μm) thick cryostat sections were used for IHC. The expression of the cell proliferation marker Ki67 was evaluated by IHC using anti-Ki67 antibody. […] The sections were visualized with a Nikon E800 microscope equipped with fluorescence detection equipment and a digital camera attached to a computer.
as §6, with “area. […]” for “area.”

`CO[C@H]1CC[C@H](N2C(=O)CNc3ncc(-c4ccc(C(C)(C)O)nc4)nc32)CC1` [Compound 1, 7-(6-(2-hydroxypropan-2-yl)pyridin-3-yl)-1-((1r,4r)-4-methoxycyclohexyl)-3,4-dihydropyrazino-[2,3-b]pyrazin-2(1H)-one] gave a GI50 (BT-20) of 330 nM, a GI50 (AU565) of 213 nM and a GI50 (MDA-MB-361) of 65.7 nM. It also gave a GI50 (MDA-MB-415) of 169 nM, a GI50 (EFM-19) of 57.2 nM and a GI50 (CAL-85-1) of 253 nM. For the same compound, the GI50 (MDA-MB-231) was 710 nM, the “TUNEL-positive cells compared with vehicle control” value (U87MG tumors [1]) was “more than a four-fold increase” and the “reduction in the number of proliferating cells (Ki67) compared with vehicle” value (U87MG tumors [2]) was 59%.
